In PMC5761851, “Application of a phenotypic drug discovery strategy to identify biological and chemical starting points for inhibition of TSLP production in lung epithelial cells” (PLoS ONE, 2018):

Tests used:
Assay in all cases: kinase selectivity panel
Format in all cases: biochemical
DDR2 = biological target: T1, DDR2 (Homo sapiens, UniProt Q16832); conditions: for remaining activity at 10 µM: read-out: percentage of control activity (POC), DDR2
T1 construct: purchased Eurofins Pharma Discovery Services (KinaseProfiler; Cerep BioPrint panel)
T1 sequence (Q16832 22-855): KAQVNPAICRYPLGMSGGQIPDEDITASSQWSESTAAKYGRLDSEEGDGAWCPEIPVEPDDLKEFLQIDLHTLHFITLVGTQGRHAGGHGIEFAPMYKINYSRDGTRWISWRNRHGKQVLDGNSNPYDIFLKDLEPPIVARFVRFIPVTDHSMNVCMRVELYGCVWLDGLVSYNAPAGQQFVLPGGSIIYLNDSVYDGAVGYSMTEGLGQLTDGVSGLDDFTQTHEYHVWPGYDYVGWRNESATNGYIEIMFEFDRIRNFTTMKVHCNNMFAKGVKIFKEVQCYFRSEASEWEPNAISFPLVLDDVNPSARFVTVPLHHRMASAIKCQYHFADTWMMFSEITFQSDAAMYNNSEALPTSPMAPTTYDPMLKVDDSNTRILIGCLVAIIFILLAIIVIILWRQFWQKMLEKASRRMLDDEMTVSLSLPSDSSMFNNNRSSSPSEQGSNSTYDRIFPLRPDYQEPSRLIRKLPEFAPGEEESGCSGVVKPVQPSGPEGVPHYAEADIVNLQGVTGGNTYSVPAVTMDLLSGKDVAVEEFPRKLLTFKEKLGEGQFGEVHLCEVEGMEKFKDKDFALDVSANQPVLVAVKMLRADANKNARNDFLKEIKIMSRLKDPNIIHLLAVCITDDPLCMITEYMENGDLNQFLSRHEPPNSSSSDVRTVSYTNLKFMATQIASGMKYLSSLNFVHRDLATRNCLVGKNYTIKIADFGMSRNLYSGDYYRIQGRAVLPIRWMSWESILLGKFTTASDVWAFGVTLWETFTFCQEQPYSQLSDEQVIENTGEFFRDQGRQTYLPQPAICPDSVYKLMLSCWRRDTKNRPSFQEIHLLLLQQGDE
In short: (§1)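 IC50 values derive from 9 duplicate concentrations, run only for activities picked after an initial 10 μM duplicate screen across 125 representative kinases.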

JAK3 = biological target: T2, JAK3 (Homo sapiens, UniProt P52333); conditions: read-out: percentage of control activity (POC), JAK3
T2 construct: purchased Eurofins Pharma Discovery Services (KinaseProfiler; Cerep BioPrint panel)
T2 sequence (P52333 1-1124): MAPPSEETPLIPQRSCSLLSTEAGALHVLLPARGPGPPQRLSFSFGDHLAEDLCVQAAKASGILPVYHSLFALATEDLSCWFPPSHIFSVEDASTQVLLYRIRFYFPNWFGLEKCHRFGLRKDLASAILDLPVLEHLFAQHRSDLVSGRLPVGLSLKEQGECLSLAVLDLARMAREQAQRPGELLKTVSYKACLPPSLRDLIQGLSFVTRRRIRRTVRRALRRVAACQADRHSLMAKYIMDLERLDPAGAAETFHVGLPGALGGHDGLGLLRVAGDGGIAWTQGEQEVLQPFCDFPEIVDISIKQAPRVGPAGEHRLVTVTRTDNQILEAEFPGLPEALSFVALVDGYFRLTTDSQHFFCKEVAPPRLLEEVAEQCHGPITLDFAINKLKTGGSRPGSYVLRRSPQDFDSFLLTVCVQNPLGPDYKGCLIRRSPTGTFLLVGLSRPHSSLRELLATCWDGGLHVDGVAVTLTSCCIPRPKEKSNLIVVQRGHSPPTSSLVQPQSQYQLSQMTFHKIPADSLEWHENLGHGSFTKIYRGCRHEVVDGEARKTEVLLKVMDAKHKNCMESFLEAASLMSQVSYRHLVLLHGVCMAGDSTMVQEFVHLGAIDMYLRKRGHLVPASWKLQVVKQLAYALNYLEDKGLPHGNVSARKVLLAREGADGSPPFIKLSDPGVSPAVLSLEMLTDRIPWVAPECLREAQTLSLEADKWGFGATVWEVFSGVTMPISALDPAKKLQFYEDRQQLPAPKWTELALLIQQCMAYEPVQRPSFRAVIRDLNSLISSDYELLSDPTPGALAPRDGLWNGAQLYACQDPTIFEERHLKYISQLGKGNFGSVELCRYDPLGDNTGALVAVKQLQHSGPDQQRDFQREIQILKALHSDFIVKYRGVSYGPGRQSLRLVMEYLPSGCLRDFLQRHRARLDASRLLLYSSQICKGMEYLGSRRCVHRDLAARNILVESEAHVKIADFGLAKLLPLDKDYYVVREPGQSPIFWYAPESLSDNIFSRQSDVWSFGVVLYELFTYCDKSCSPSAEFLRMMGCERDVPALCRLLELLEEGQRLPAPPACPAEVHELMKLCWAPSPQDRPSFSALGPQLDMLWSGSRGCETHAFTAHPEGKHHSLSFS
In short: as §1

Tie2 = biological target: T3, Tie2 (Homo sapiens, UniProt Q02763); conditions: for remaining activity at 10 µM: read-out: percentage of control activity (POC), Tie2
T3 construct: purchased Eurofins Pharma Discovery Services (KinaseProfiler; Cerep BioPrint panel)
T3 sequence (Q02763 23-1124): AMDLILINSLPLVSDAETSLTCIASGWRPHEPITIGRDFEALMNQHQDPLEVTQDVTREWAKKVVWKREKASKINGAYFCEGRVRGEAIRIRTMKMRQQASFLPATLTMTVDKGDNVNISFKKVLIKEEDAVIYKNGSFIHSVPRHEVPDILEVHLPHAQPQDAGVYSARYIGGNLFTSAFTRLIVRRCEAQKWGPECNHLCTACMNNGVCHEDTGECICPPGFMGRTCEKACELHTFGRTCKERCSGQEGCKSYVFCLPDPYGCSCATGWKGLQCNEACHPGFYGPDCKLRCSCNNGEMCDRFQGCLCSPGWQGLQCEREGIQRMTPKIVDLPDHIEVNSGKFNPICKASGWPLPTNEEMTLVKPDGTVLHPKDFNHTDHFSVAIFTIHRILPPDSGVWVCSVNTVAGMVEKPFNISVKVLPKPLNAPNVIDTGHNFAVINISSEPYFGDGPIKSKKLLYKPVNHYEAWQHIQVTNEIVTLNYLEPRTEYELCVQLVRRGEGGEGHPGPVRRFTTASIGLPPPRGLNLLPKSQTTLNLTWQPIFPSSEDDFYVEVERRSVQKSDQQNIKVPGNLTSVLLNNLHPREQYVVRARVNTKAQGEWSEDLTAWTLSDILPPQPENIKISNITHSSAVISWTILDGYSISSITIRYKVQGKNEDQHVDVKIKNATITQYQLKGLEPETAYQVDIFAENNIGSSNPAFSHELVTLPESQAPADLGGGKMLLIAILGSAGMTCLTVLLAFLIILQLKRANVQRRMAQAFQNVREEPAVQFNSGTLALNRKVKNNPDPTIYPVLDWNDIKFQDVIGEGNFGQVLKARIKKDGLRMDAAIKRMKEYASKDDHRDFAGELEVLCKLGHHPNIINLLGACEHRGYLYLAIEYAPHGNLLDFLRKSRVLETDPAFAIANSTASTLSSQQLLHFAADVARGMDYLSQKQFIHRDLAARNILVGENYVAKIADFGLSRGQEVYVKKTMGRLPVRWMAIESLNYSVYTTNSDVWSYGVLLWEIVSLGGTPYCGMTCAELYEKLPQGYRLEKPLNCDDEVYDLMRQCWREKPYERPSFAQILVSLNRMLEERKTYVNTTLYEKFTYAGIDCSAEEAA
In short: as §1

CC(C)(C)N1CCC(c2cc(-c3ccc(F)cc3Cl)c3cc[n+]([O-])c(-c4c(Cl)cccc4Cl)c3n2)CC1 [compound 2]
remaining activity at 10 µM (DDR2): 94%
remaining activity at 10 µM (JAK3): 102%
remaining activity at 10 µM (Tie2): 79%

Cc1ccc(C(=O)NCC2CC2)cc1-c1ccc2c(c1)NC(=O)C21CCCC1 [compound 3]
remaining activity at 10 µM (DDR2): 71%
remaining activity at 10 µM (JAK3): 100%
remaining activity at 10 µM (Tie2): 96%

Cn1cc(-c2cccc(-c3nc(C(=O)NC4C5CC6CC4CC(O)(C6)C5)c(N)nc3N)c2)cn1 (stereo not drawn) [compound 4]
inhibition at 10 µM (DDR2): 53%
remaining activity at 10 µM (DDR2): 47%
remaining activity at 10 µM (JAK3): 89%
remaining activity at 10 µM (Tie2): 76%

CS(=O)(=O)N1CCN(c2ccc(Nc3ncc(C(N)=O)c(NC4CC4)n3)cc2)CC1 [compound 5]
remaining activity at 10 µM (DDR2): 28%
remaining activity at 10 µM (JAK3): -2%
remaining activity at 10 µM (Tie2): 42%

COc1c(NC(=O)c2ccc(C)c(-c3nnc4c(NCC(C)(C)C)nccn34)c2)cc(C(C)(C)C)cc1NS(C)(=O)=O [compound 7, reference compound]
inhibition at 10 µM (DDR2): 97%
remaining activity at 10 µM (DDR2): 3%
remaining activity at 10 µM (JAK3): 99%
inhibition at 10 µM (Tie2): 83%
remaining activity at 10 µM (Tie2): 27%
